Tests used:
[1] = test system: histamine-induced bronchoconstriction; experiment: BD: bronchodilator activity against histamine-induced bronchoconstriction in the guinea pig; format: in vivo; settings: for potency, in words: 4280 at 20 mpK po vs 4258 at 15 mpK po; for lethal (animals) / dose showing lethal effects: guinea pig; for dose showing lethal effects: po
Procedure: A modification of the method of Siegmund. O. H., et.al., J. Pharmacol. and Exp. Therap. 90:254-9, 1947, is used. […] Times for prostration are recorded.

[2] = test system: guinea pig tracheal chain; experiment: SP: spasmolytic activity in vitro, guinea pig tracheal chain preparation; format: cell-based; settings: Cavia porcellus; given as fraction of molar, e.g. M/1000; read-out: SP in vitro, C: molar (M) concentration required to produce maximum relaxation
Text: SP: Spasmolytic activity evaluated in vitro using guinea pig tracheal chain preparation, and expressed as the molar (M) concentration required to produce maximum relaxation. The method used in that of Castillo and de Beer, J. Pharmac. Expt. Therap. 90, 104, 1947.

[3] = test system: antigen-induced bronchconstriction; experiment: AA: antiallergy (anti-anaphylactic) activity against antigen-induced bronchoconstriction in sensitized rats; settings: 1h
Text: The animals are subdivided into control and test groups.
Test animals receive a drug either orally, intraperitoneally or intravenously and are challenged with intravenous antigen at fixed time intervals after dosing. Antigen-induced increases in tracheal pressure are monitored and reflect the extent of bronchoconstriction.

[4] = in vivo
Procedure: (§1) The LD50 was determined in three species, the mouse (male, 18-25 g), the albino rat (female, 150-200 g) and the albino guinea pig (male 180-280 g) by oral administration and in the albino rat by intraperitoneal administration. The animals are fasted overnight prior to testing. Six groups of 10 animals are used; five groups are dosed with the test substance, the sixth group serves as a control and receives the drug vehicle at the highest test concentration. The compounds were administered in a 0.5% gum tragacanth solution in distilled water using a constant logarithmic increment in dose. Dose volume ranged from […].
The animals were housed five per cage (rat and guinea pig) or ten per cage (mouse) with free access to food and water. The number of dead animals was recorded daily for five consecutive days.

[5] = LD50, mouse; settings: in vivo, po
Procedure: as §1
The animals were housed five per cage (rat and guinea pig) or ten per cage (mouse) with free access to food and water. The number of dead animals was recorded daily for five consecutive days. The total mortality per group of 10 for each dose level was recorded and LD50 with Confidence Limits calculated according to the method described by Weil, C. S., Biometrics 8(3): 249-263, 1952.

[6] = test system: antigen-induced wheal formation; experiment: PCA: passive cutaneous anaphylaxis in the rat; format: in vivo; settings: 20 mg/kg po
Procedure: PCA: Antianaphylactic activity against passive cutaneous anaphylaxis in the rat, expressed as % protection against antigen-induced wheal formation.
The method used is that of Ogilvie, B. M., Immunology 12, 113-131 (1967). Reaginic […] antibodies develope in that rat following subcutaneous injection of Nippostrongylus brasiliensis larvae. Antisera, collected 28 days later are injected subcutaneously into new rats.

[7] = test system: histamine-induced bronchoconstriction; experiment: CP: cardiopulmonary activity against histamine-induced bronchoconstriction in the dog; format: in vivo; settings: histamine administration; vs theophylline
Text: Int. Pharmacodyn. Therap. […] Pretreatment with bronchodilator drugs aims to block the bronchospastic response to histamine. Each dog serves as its own control.

For CC(C)Cn1c(=O)n(C)c(=O)c2[nH]cnc21 [Compound 4258], the “BD, % protection” value ([1]; 15 mpK po, 30') was 45%, the “BD, % protection” value ([1]; 15 mpK po, 2h) was 75% and the “BD, % protection” value ([1]; 15 mpK po, 4h) was 39%. For the same molecule, the “potency, in words” value [1] was “equal potency”, the “lethal (animals)” value ([1]; 25 mpK po) was 2/4 and the “dose showing lethal effects” value [1] was 25 mpK. For the same molecule, the EC (maximum relaxation) [2] was 0.001 M and the “AA, toxicity noted in place of % protection” value ([3]; 2.0 mpK ip) was “tox”.

With CCC(C)Cn1c(=O)n(C)c(=O)c2[nH]cnc21 (stereo not shown) [Compound 4280] the “BD, % protection” value ([1]; 20 mpK po, 30') was 86%, the “BD, % protection” value ([1]; 20 mpK po, 1h) was 86% and the “BD, % protection” value ([1]; 20 mpK po, 2h) was 80%. For the same molecule, the “BD, % protection” value ([1]; 20 mpK po, 4h) was 13%, the “potency, in words” value [1] was “equal potency” and the “lethal (animals)” value ([1]; 80 mpK po) was 3/8. For the same molecule, the “dose showing lethal effects” value [1] was 80 mpK, the EC (maximum relaxation) [2] was 0.001 M and the “AA, % protection” value ([3]; 15 mpK ip) was 56%.

With Cc1nc2c([nH]1)c(=O)n(C)c(=O)n2C [Compound 4296] the “BD, % protection” value ([1]; 100 mpK po, 8h) was 23%, the “BD, % protection” value ([1]; 150 mpK po, 30') was 68% and the “BD, % protection” value ([1]; 150 mpK po, 8h) was 85%. For the same molecule, the EC (maximum relaxation) [2] was 0.0714 M.

For CCCC(C)Cn1c(=O)n(C)c(=O)c2[nH]c(C)nc21 (stereo not shown) [Compound 4373, 1,8-dimethyl-3-(2-methyl-1-pentyl)xanthine], the “BD, % protection” value ([1]; 40 mpK po, 30') was 71%, the “BD, % protection” value ([1]; 40 mpK po, 4h) was 87% and the “BD, % protection” value ([1]; 40 mpK po, 6h) was 96%. The “BD, % protection” value ([1]; 80 mpK po, 30') was 81%, the “BD, % protection” value ([1]; 80 mpK po, 4h) was 100% and the EC (maximum relaxation) [2] was 0.05 M. The “AA, % protection” value ([3]; 20 mpK ip) was 54%.

With CCC(C)Cn1c(=O)n(C)c(=O)c2[nH]c(C)nc21 (stereo not shown) [Compound 4383, 1,8-dimethyl-3-(2-methyl-1-butyl) xanthine] the “BD, % protection” value ([1]; 10 mpK po, 30') was 35%, the “bronchodilation potency in the BD (guinea pig) assay, in words” value ([1]; 10 mpK po, 4383 vs 4388) was “about the same bronchodilation potency as 4388” and the “BD, % protection” value ([1]; 10 mpK po, 2h) was 63%. For the same molecule, the “BD, % protection” value ([1]; 10 mpK po, 6h) was 66%, the “toxic effects in the BD (guinea pig) assay, in words” value ([1]; 20 mpK po) was “no toxic effects” and the “BD, % protection” value ([1]; 20 mpK po, 1h) was 92%. For the same molecule, the “BD, % protection” value ([1]; 20 mpK po, 4h) was 100%, the “BD, % protection” value ([1]; 20 mpK po, 6h) was 97% and the EC (maximum relaxation) [2] was 0.001 M. The LD50 at 120 h ([4]; ip, rat) was 24.6 mg/kg, the LD50 at 120 h ([4]; po, guinea pig) was 21.7 mg/kg and the LD50 at 120 h ([4]; po, rat) was 88.7 mg/kg. The LD50 at 120 h [5] was 66.6 mg/kg, the “Wheal Diameter, % Δ” value [6] was 50% and the “Wheal Intensity, % Δ” value [6] was 48%. The “Wheal Diameter: Mean ± S.E.M., Response” value ([6]; control 1.50 ± 0.16) was 0.74 ± 0.16 cm, the “Wheal Intensity: Mean ± S.E.M., Response” value ([6]; control 2.17 ± 0.21) was 1.13 and the “bronchodilation in the dog, in words” value [7] was “significantly reduces the decrease in pulmonary compliance and increase in pulmonary resistance due to histamine administration”. The “AA, % protection” value ([3]; 2.5 mpK po) was 58% and the “AA, % protection” value ([3]; 4 mpK ip) was 57%.

With Cc1nc2c([nH]1)c(=O)n(C)c(=O)n2CC(C)C [Compound 4388, 1,8-dimethyl-3-isobutylxanthine] the “BD, % protection” value ([1]; 10 mpK po, 1h) was 76%, the “BD, % protection” value ([1]; 10 mpK po, 4h) was 73% and the “BD, % protection” value ([1]; 10 mpK po, 6h) was 80%. For the same molecule, the “toxic effects in the BD (guinea pig) assay, in words” value ([1]; 20 mpK po) was “pronounced toxicity and was even lethal to one animal”, the “bronchodilator potency, in words” value ([1]; general statement) was “great potency and is long-acting” and the “lethal (animals)” value ([1]; 20 mpK po) was 1/4. For the same molecule, the EC (maximum relaxation) [2] was 0.001 M, the “AA, % protection” value ([3]; 2.5 mpK po) was 50% and the “AA, % protection” value ([3]; 75 mpK ip) was 70%.

Cn1c(=O)c2[nH]cnc2n(C)c1=O [Theophylline, 1,3-dimethylxanthine] gave an EC (maximum relaxation) [2] of 0.1 M.

From US4089959A, “Long-acting xanthine bronchodilators and antiallergy agents” (priority 1976, dated 1978)
